Measurements taken from US20070015774A1, “Quinazoline derivatives useful in cancer treatment” (Schering Corporation, priority 2005, published 2007).
Like-named read-outs stand apart in the source and are kept apart here.

Target: GST-p53 DNA binding domain (aa 92-aa 312) (Homo sapiens, UniProt P04637)
Test: Scintillation Proximity Assay (SPA), displacement of 3H STANDARD COMPOUND
Conditions: 1 h, 2 ug/mL of drug, number in brackets = number of determinations averaged, read-out: SPA ASSAY % Residual T @ 2 ug/mL of drug (Average of)
Source text: Most of the oncogenic mutants of the tumor suppressor protein p53 lack sequence specific DNA binding activity at physiological temperature due to conformational changes in the DNA binding domain. Small molecules and peptide which bind to the p53 DNA binding domain stabilize the conformation and restore DNA binding activity to mutant p53 protein (Science 286, 2507-2510, 1999; PNAS, 99, 937-942, 2002). Using ^3H STANDARD COMPOUND (structure shown below; carbon atom with * is the atom labelled), [drawing 1366] a radio labeled small molecule which binds to p53, and the GST-p53 DNA binding domain (aa 92-aa 312), we have developed a quantitative screening assay. The assay is based on Scintillation Proximity Assay (SPA) technology, developed by Amersham Biosciences to measure molecular interactions. Briefly, the complex of GST-p53, ^3H STANDARD and Glutathione-SPA beads (Amersham Biosciences) are incubated with mixing for 1 hr at room temperature in the presence of the novel compounds to be screened. The signal is read on Microbeta. The compounds which have the ability to displace ^3H STANDARD COMPOUND are selected. Such molecules will stabilize the conformation and restore DNA binding activity to mutant p53 protein.
The above assay was used to determine the ability of the compounds of this invention to directly bind to p53 core and restore DNA binding activity to mutant p53 and the results for selected compounds have been given above in various tables.
A letter rating corresponding to % Residual total binding (T) @ 2 ug/mL of drug (i.e., compound of the present invention) from this assay have been assigned as follows: Compounds having % Residual T values of from 0% to less than 20% have been assigned the letter “A”. Compounds having % Residual T values of from 20% to less than 40% have been assigned the letter “B”. Compounds having % Residual T values of from 40% to less than 80% have been assigned the letter “C”. Compounds having % Residual T values of 80% or higher have been assigned the letter “D”. The exact % Residual T values @ 2 ug/mL for some illustrative compounds are shown below: […]

GST-p53 DNA binding domain (aa 92-aa 312), sequence (P04637 92-312): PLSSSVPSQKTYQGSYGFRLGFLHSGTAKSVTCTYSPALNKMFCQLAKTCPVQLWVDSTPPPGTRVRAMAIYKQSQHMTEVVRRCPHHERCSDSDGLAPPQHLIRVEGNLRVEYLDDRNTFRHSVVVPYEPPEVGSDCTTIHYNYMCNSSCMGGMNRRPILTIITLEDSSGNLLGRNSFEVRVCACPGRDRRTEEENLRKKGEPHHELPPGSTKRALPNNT

Row | Compound | remaining activity at 2 µg/mL (exact values) | remaining activity at 2 µg/mL (letter rating)
1 | CN(C)CCCNc1nc(CN(C)Cc2cccc3cc[nH]c23)nc2ccccc12 [38-33] | 25.7% | 20 to 40%
2 | CN(C)CCCNc1nc(CN(C)CC2CCCCC2)nc2ccccc12 [38-93] |  | 40 to 80%
